Like-named read-outs stand apart in the source and are kept apart here. *1 amine or outer side, *2 acyl side, *3 side chain or, on linkers, in order; H or OH if unused. Where a SMILES comes first, the peptide text is derived from it. Bridges are numbered along the chain shown (N, C = ends). [ ]: non-standard residue; d: D form. The star is where a group is joined. pTerphenylCO(4''-OnC5H11) = CCCCCOc1ccc(-c2ccc(-c3ccc(C(=O)*)cc3)cc2)cc1; Orn(4R-OH,5R-OH) = O=C([C@H](C[C@@H](O)[C@@H](O)N[*:3])N[*:1])[*:2]; hTyr(3S-OH,4S-OH) = N[C@H](C(=O)O)[C@H](O)[C@@H](O)c1ccc(O)cc1; Pro(3S-OH,4S-Me) = C[C@H]1CN[C@H](C(=O)O)[C@H]1O; Hyp = O=C(O)[C@@H]1C[C@@H](O)CN1
System: C. elegans
Experiment: microbe, parasite or virus in culture
Conditions: Caenorhabditis elegans
[1] = 0 h, read-out: Percentage of motility inhibition 0 h, Table S2, C. elegans SS assay, 110 μM, 0 h, averages of 4 data points
[2] = 24 h, read-out: Percentage of motility inhibition 24 h, Table S2, C. elegans SS assay, 110 μM, 24 h, averages of 4 data points
[3] = 0 h, read-out: Percentage of motility inhibition 0 h
[4] = 24 h, read-out: Percentage of motility inhibition 24 h

Compound | inhibition at 110 µM [1] [%] | inhibition at 110 µM [2] [%] | inhibition at 110 µM [3] [%] | inhibition at 110 µM [4] [%]
O=C(OCC1=C[C@@H](O)[C@@H]2C=CO[C@@H](O[C@@H]3O[C@H](CO)[C@@H](O)[C@H](O)[C@H]3O)[C@H]12)c1ccc(O)cc1 [Agnuside] | 2 | 15 | – | –
CCCSc1ccc2nc(NC(=O)OC)[nH]c2c1 [Albendazole] | – | – | 17 | 6
CC(C)C1=C[C@H]2[C@@H](CC[C@]2(C)O)[C@](C)(O)CC1 [Alismoxide] | 2 | 0 | – | –
C[C@H](C[C@H](O)[C@@H](O)C(C)(C)O)C1=C2C[C@H](O)[C@H]3[C@@]4(C)CCC(=O)C(C)(C)[C@@H]4CC[C@]3(C)[C@@]2(C)CC1 [Alisol A] | 3 | 2 | – | –
C[C@H](C[C@H](O)[C@H]1OC1(C)C)C1=C2C[C@H](O)[C@H]3[C@@]4(C)CCC(=O)C(C)(C)[C@@H]4CC[C@]3(C)[C@@]2(C)CC1 [Alisol B] | – | – | 3 | 10
NC(=O)NC1NC(=O)NC1=O (centres unmarked) [Allantoin] | 0 | 13 | – | –
COc1ccc2c(c1OC)CN(C)CCc1cc3c(cc1C(=O)C2)OCO3 [Allocryptopine] | 11 | 18 | – | –
O=c1cc(-c2ccc(O)c(-c3c(O)cc(O)c4c(=O)cc(-c5ccc(O)cc5)oc34)c2)oc2cc(O)cc(O)c12 [Amentoflavone] | 0 | 0 | – | –
C[C@@H]1[C@H](O)[C@@H](C)/C=C/C=C/C=C/C=C/C=C/C=C/C=C/[C@H](O[C@@H]2O[C@H](C)[C@@H](O)[C@H](N)[C@@H]2O)C[C@@H]2O[C@](O)(C[C@@H](O)C[C@@H](O)[C@H](O)CC[C@@H](O)C[C@@H](O)CC(=O)O[C@H]1C)C[C@H](O)[C@H]2C(=O)O [Amphotericin B] | 2 | 29 | – | –
CC(C)CN(C[C@@H](O)[C@H](Cc1ccccc1)NC(=O)O[C@H]1CCOC1)S(=O)(=O)c1ccc(N)cc1 [Amprenavir] | 41 | 34 | – | –
N#C[C@H](O[C@@H]1O[C@H](CO[C@@H]2O[C@H](CO)[C@@H](O)[C@H](O)[C@H]2O)[C@@H](O)[C@H](O)[C@H]1O)c1ccccc1 [Amygdalin] | 13 | 0 | – | –
c1cncc([C@@H]2CCCCN2)c1 [Anabasine] | 0 | 0 | – | –
O=c1cccc2n1C[C@H]1C[C@@H]2CN2CCCC[C@H]12 [Anagyrine] | 14 | 6 | – | –
C=C1CC[C@@H]2[C@](C)(CO)CCC[C@@]2(C)[C@@H]1CCC1=CCOC1=O [Andrograpanin] | 3 | 20 | – | –
CCCCCOc1ccc(-c2ccc(-c3ccc(C(=O)N[C@H]4C[C@@H](O)[C@@H](O)NC(=O)[C@@H]5[C@@H](O)[C@@H](C)CN5C(=O)[C@H]([C@@H](C)O)NC(=O)[C@H]([C@H](O)[C@@H](O)c5ccc(O)cc5)NC(=O)[C@@H]5C[C@@H](O)CN5C(=O)[C@H]([C@@H](C)O)NC4=O)cc3)cc2)cc1 [Anidulafungin] ({pTerphenylCO(4''-OnC5H11)}-[Orn(4R-OH,5R-OH)]T[Hyp][hTyr(3S-OH,4S-OH)]T[Pro(3S-OH,4S-Me)]; lactam 1-C) | 54 | 61 | – | –
C[C@@H]1C[C@@H](O)[C@@]2(O)[C@@]13C[C@@H](OC(=O)[C@H]3O)[C@](C)(O)[C@@]21COC1=O [Anisatin] | 0 | 20 | – | –
O=c1cc(-c2ccc(O)cc2)oc2cc(O)cc(O)c12 [Apigenin] | 12 | 3 | – | –
O=c1cc(-c2ccc(O)cc2)oc2cc(O[C@@H]3O[C@H](CO)[C@@H](O)[C@H](O)[C@H]3O[C@@H]3OC[C@](O)(CO)[C@H]3O)cc(O)c12 [Apiin] | 24 | 0 | – | –
Cn1c(Cc2ccccc2)nc(=O)c2ccccc21 [Arborine] | 0 | 4 | – | –
OC[C@H]1O[C@@H](Oc2ccc(O)cc2)[C@H](O)[C@@H](O)[C@@H]1O [Arbutin] | 0 | 1 | – | –
C[C@@H]1O[C@@H](O[C@H]2[C@H](O[C@H]3CO[C@@H](O[C@H]4CC[C@]5(C)[C@H]6CC[C@]78OC[C@@]9(CC[C@](C)(C=O)C[C@H]97)[C@H](O)C[C@@]8(C)[C@]6(C)CC[C@H]5C4(C)C)[C@H](O[C@@H]4O[C@H](CO)[C@@H](O)[C@H](O)[C@H]4O)[C@H]3O)O[C@H](CO)[C@@H](O)[C@@H]2O)[C@H](O)[C@H](O)[C@H]1O [Ardisiacrispin B] | 16 | 0 | – | –
CC1(C)CC[C@]2(C(=O)O)CC[C@]3(C)C(=CC[C@@H]4[C@@]5(C)C[C@@H](O)[C@H](O)[C@@](C)(CO)[C@@H]5CC[C@]43C)[C@@H]2[C@@H]1O [Arjungenin] | 0 | 36 | – | –

Reference: publication PMC11855827, “High-Throughput Screening of Five Compound Libraries for Anthelmintic Activity and Toxicity Leads to the Discovery of Two Flavonoid Compounds” (International Journal of Molecular Sciences, 2025)
